Values quoted from earlier work as cited in patent publication US20110002851A1, “Cationic Colloidal Carriers for Delivery of Active Agents to the Blood-Brain Barrier in the Course of Neuroinflammatory Diseases” (MediGene AG, priority 2006, published 2011).

How the values were obtained:
[1] = test system: MMP-9; conditions: LPS-stimulated astrocytes and microglia
[2] = test system: T cell; conditions: micellar paclitaxel formulation

Cc1cn([C@H]2C[C@H](N=[N+]=[N-])[C@@H](CO)O2)c(=O)[nH]c1=O [AZT, zidovudine]
expression of MMP-9 [1]: dose-dependently inhibited

CC(=O)O[C@H]1C(=O)[C@@]2(C)[C@H]([C@H](OC(=O)c3ccccc3)[C@]3(O)C[C@H](OC(=O)[C@H](O)[C@@H](NC(=O)c4ccccc4)c4ccccc4)C(C)=C1C3(C)C)[C@]1(OC(C)=O)CO[C@@H]1C[C@@H]2O (racemic) [paclitaxel]
T cell proliferation [2]: dose-dependent suppression

CC(C)(C)NC(=O)[C@@H]1CN(Cc2cccnc2)CCN1C[C@@H](O)C[C@@H](Cc1ccccc1)C(=O)N[C@H]1c2ccccc2C[C@H]1O [IDV, indinavir]
expression of MMP-9 [1]: dose-dependently inhibited
